For 22 compounds, T/C results are on record in PubChem BioAssay AID328 (DTP/NCI, 2004).

Where “and” joins values, the source holds several entries; their conditions need not be identical. Identical values can stand only once. Inconclusive results and toxic doses are left out.

For the experiment, the system named is BDF1 mice, P388 leukemia ip, median survival T/C. The experiment in a line: NCI In Vivo Anticancer Drug Screen. Data for tumor model P388 Leukemia (intraperitoneal) in B6D2F1 (BDF1) mice. The settings on record: endpoint: median survival time, higher = longer survival. A digest of the protocol: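 Each value expresses how treatment altered survival: treated-mouse outcome over vehicle-mouse outcome, both groups bearing the transplanted tumour.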

Where [1] appears, read: dose: 25.0 mg/kg/injection, schedule: Q04DX003 (ip), vehicle: saline.
Where [2] appears, read: dose: 50.0 mg/kg/injection, schedule: Q04DX003 (ip), vehicle: saline.
The mark [3] stands for this setting: dose: 100.0 mg/kg/injection, schedule: Q01DX009 (ip), vehicle: Klucel (hydroxypropylcellulose) (HPC).
Setting [4] is: dose: 200.0 mg/kg/injection, schedule: Q01DX009 (ip), vehicle: Klucel (hydroxypropylcellulose) (HPC).
Setting [5] is: dose: 100.0 mg/kg/injection, schedule: Q01DX009 (ip), vehicle: saline with Tween-80.
Setting [6] is: dose: 100.0 mg/kg/injection, schedule: Q04DX003 (ip), vehicle: saline with Tween-80.
Setting [7] is: dose: 200.0 mg/kg/injection, schedule: Q01DX009 (ip), vehicle: saline with Tween-80.
The mark [8] stands for this setting: dose: 400.0 mg/kg/injection, schedule: Q04DX003 (ip), vehicle: saline with Tween-80.
Where [9] appears, read: dose: 50.0 mg/kg/injection, schedule: Q01DX009 (ip), vehicle: Klucel (hydroxypropylcellulose) (HPC).
[10] abbreviates: dose: 100.0 mg/kg/injection, schedule: Q04DX003 (ip), vehicle: Klucel (hydroxypropylcellulose) (HPC).
Where [11] appears, read: dose: 200.0 mg/kg/injection, schedule: Q04DX003 (ip), vehicle: Klucel (hydroxypropylcellulose) (HPC).
The mark [12] stands for this setting: dose: 50.0 mg/kg/injection, schedule: Q01DX009 (ip), vehicle: saline with Tween-80.
The mark [13] stands for this setting: dose: 200.0 mg/kg/injection, schedule: Q04DX003 (ip), vehicle: saline with Tween-80.
Setting [14] is: dose: 100.0 mg/kg/injection, schedule: Q01DX009 (ip), vehicle: saline.
[15] abbreviates: dose: 200.0 mg/kg/injection, schedule: Q01DX009 (ip), vehicle: saline.

Regarding `O=c1[nH]c(=O)n(O)c2nc[nH]c12`, the T/C under setting [1] is 100 % of control; the T/C (dose: 37.5 mg/kg/injection, schedule: Q01DX001 (ip), vehicle: saline) is 100 % of control; the T/C under setting [2] is 100 % of control; the T/C (dose: 75.0 mg/kg/injection, schedule: Q01DX001 (ip), vehicle: saline) was 109 % of control; the T/C (dose: 75.0 mg/kg/injection, schedule: Q01DX009 (ip), vehicle: saline) is 90 % of control; the T/C (dose: 100.0 mg/kg/injection, schedule: Q04DX003 (ip), vehicle: saline) was 118 % of control.

As to `COc1ccc(OC)c(NC(=O)Nc2c(C)n(C)n(-c3ccccc3)c2=O)c1`, the T/C is 105 % of control under setting [3]; 90 % of control under setting [4]; 105 % of control (dose: 400.0 mg/kg/injection, schedule: Q01DX009 (ip), vehicle: Klucel (hydroxypropylcellulose) (HPC)).

With `FC(F)(F)c1nc2nc(Br)c(Br)nc2[nH]1`, the T/C is 100 % of control under setting [5], 87 % of control under setting [6], 90 % of control under setting [7] and 91 % of control under setting [8].

Turning to `O=C1C=C(Nc2ccc(F)cc2)C(Nc2ccc(F)cc2)=CC1=O`, the T/C is, setting by setting: (dose: 87.5 mg/kg/injection, schedule: Q01DX009 (ip), vehicle: saline with Tween-80) 87 % of control; (dose: 350.0 mg/kg/injection, schedule: Q01DX009 (ip), vehicle: saline with Tween-80) 91 % of control.

Take `CCCCCCCCC(=O)N1CC1`: the T/C is, setting by setting: under setting [9], 95 % of control; under setting [3], 118 % of control; under setting [10], 109 % of control; under setting [4], 86 % of control; under setting [11], 113 % of control.

`CCCCN(CCCC)CCC(=O)c1ccc(OC)c2ccccc12`: the T/C under setting [12] was 86 % of control.

As for `CCOC(=O)C(=CNc1ccccc1OC)C(=O)OCC`, the T/C (dose: 1.56 mg/kg/injection, schedule: Q01DX009 (ip), vehicle: saline with Tween-80) was 112 % of control; the T/C (dose: 3.12 mg/kg/injection, schedule: Q01DX009 (ip), vehicle: saline with Tween-80) was 104 % of control; the T/C (dose: 6.25 mg/kg/injection, schedule: Q01DX009 (ip), vehicle: saline with Tween-80) was 102 % of control; the T/C (dose: 12.5 mg/kg/injection, schedule: Q01DX009 (ip), vehicle: saline with Tween-80) was 102 % of control and 116 % of control; the T/C (dose: 25.0 mg/kg/injection, schedule: Q01DX009 (ip), vehicle: saline with Tween-80) was 98 % of control and 123 % of control; the T/C under setting [12] is 100 % of control and 116 % of control and 121 % of control. Besides, the T/C is 99 % of control (dose: 50.0 mg/kg/injection, schedule: Q04DX003 (ip), vehicle: saline with Tween-80); 102 % of control and 114 % of control under setting [5]; 96 % of control under setting [6]; 109 % of control under setting [7]; 96 % of control under setting [13]; 106 % of control (dose: 400.0 mg/kg/injection, schedule: Q01DX009 (ip), vehicle: saline with Tween-80). In addition, the T/C under setting [8] was 96 % of control.

Turning to `CC(N)COCc1ccccc1` (configuration not stated), the T/C was 104 % of control under setting [1] and 95 % of control under setting [2].

Regarding `CC(=O)OC1C2CCC3C(C)(O)C4CC(O)C(C)(C)C4(O)C(O)CC13CC2(C)O` (configuration not stated), the T/C reads like this: (dose: 12.5 micrograms/kg/injection, schedule: Q01DX009 (ip), vehicle: Klucel (hydroxypropylcellulose) (HPC)) 96 % of control; (dose: 25.0 micrograms/kg/injection, schedule: Q01DX009 (ip), vehicle: Klucel (hydroxypropylcellulose) (HPC)) 91 % of control; (dose: 50.0 micrograms/kg/injection, schedule: Q01DX009 (ip), vehicle: Klucel (hydroxypropylcellulose) (HPC)) 87 % of control.

As to `CC(C)NC(=O)C12CC3CC(CC(C3)C1)C2`, the T/C is, setting by setting: under setting [12], 92 % of control; under setting [5], 87 % of control; under setting [7], 100 % of control.

With `O=S(=O)(F)c1ccc2nc(-c3cccc(Sc4ccccc4)c3)cc(Cl)c2c1`, the T/C by setting is: under setting [6], 90 % of control; under setting [13], 100 % of control; under setting [8], 100 % of control.

With `O=C(c1ccc[nH]1)C(Cl)(Cl)Cl`, the T/C runs as follows: under setting [12], 108 % of control; under setting [5], 117 % of control; under setting [7], 115 % of control.

Consider `O=C(O/N=C1\C2CCC(C2)C1Cl)c1ccc([N+](=O)[O-])cc1` (configuration not stated), for which the T/C reads like this: (dose: 12.5 mg/kg/injection, schedule: Q04DX003 (ip), vehicle: saline) 100 % of control; under setting [1], 96 % of control; under setting [2], 103 % of control.

Consider `Cc1ccc(O)cc1Cl`, for which the T/C was 96 % of control under setting [14]; 104 % of control under setting [15]; 104 % of control (dose: 400.0 mg/kg/injection, schedule: Q01DX009 (ip), vehicle: saline).

On to `Cn1cc(S(C)=O)c(=O)c2ccccc21` (configuration not stated), for which the T/C is, setting by setting: (dose: 50.0 mg/kg/injection, schedule: Q01DX009 (ip), vehicle: saline) 99 % of control; under setting [14], 99 % of control; under setting [15], 111 % of control.

As for `O=C(O)c1c(Cl)c(Cl)c(Cl)c(C(=O)O)c1Cl`, the T/C was 104 % of control under setting [9]; 109 % of control (dose: 50.0 mg/kg/injection, schedule: Q04DX003 (ip), vehicle: Klucel (hydroxypropylcellulose) (HPC)); 100 % of control under setting [3]; 95 % of control under setting [10]; 100 % of control under setting [11].

With `CC(NC=O)C(=O)NC(CC(=O)O)C(=O)O` (configuration not stated), the T/C was 95 % of control (dose: 50.0 mg/kg/injection, schedule: Q01DX005 (ip), vehicle: saline); 93 % of control (dose: 100.0 mg/kg/injection, schedule: Q01DX005 (ip), vehicle: saline); 89 % of control (dose: 200.0 mg/kg/injection, schedule: Q01DX005 (ip), vehicle: saline).

As to `COc1c(Br)cc(/C=C(/C)[N+](=O)[O-])cc1Br`, the T/C reads like this: under setting [6], 114 % of control; under setting [13], 160 % of control.

Regarding `CC(C)(C)OC(=O)NC(CC(Cc1ccccc1)C(N)=O)C(=O)N1CCCC1C(=O)OCc1ccccc1` (configuration not stated), the T/C runs as follows: (dose: 50.0 mg/kg/injection, schedule: Q01DX005 (ip), vehicle: saline with Tween-80) 102 % of control; (dose: 100.0 mg/kg/injection, schedule: Q01DX005 (ip), vehicle: saline with Tween-80) 95 % of control; (dose: 200.0 mg/kg/injection, schedule: Q01DX005 (ip), vehicle: saline with Tween-80) 98 % of control.

In the case of `COC1C(C)OC(OC2CC(C)(O)Cc3cc4c(c(O)c32)C(=O)c2c(O)cc3c(c2C4=O)OC2OC3(C)C(O)C(N(C)C)C2O)C(OC)C1(C)OC` (configuration not stated), the T/C is 122 % of control (dose: 1.25 mg/kg/injection, schedule: Q01DX009 (ip), vehicle: other); 169 % of control (dose: 4.32 mg/kg/injection, schedule: Q04DX003 (ip), vehicle: water); 154 % of control (dose: 5.0 mg/kg/injection, schedule: Q01DX009 (ip), vehicle: other); 183 % of control (dose: 7.2 mg/kg/injection, schedule: Q04DX003 (ip), vehicle: water); 151 % of control (dose: 10.0 mg/kg/injection, schedule: Q01DX009 (ip), vehicle: other); 111 % of control (dose: 20.0 mg/kg/injection, schedule: Q04DX003 (ip), vehicle: water).

Turning to `CC(/C(=N/N(C)C)c1ccccc1)C(C)/C(=N\N(C)C)c1ccccc1` (configuration not stated), the T/C is 97 % of control (dose: 100.0 mg/kg/injection, schedule: Q04DX002 (ip), vehicle: saline with Tween-80); 110 % of control (dose: 200.0 mg/kg/injection, schedule: Q04DX002 (ip), vehicle: saline with Tween-80); 112 % of control (dose: 400.0 mg/kg/injection, schedule: Q04DX002 (ip), vehicle: saline with Tween-80).

Consider `OCC#CC#CCO`, for which the T/C by setting is: (dose: 25.0 mg/kg/injection, schedule: Q01DX001 (ip), vehicle: saline) 95 % of control; (dose: 50.0 mg/kg/injection, schedule: Q01DX001 (ip), vehicle: saline) 118 % of control; (dose: 100.0 mg/kg/injection, schedule: Q01DX001 (ip), vehicle: saline) 100 % of control and 109 % of control.
